US20100016213A1, “USE OF A DITERPENOID COMPOUND FOR TREATING DIABETES” (National Taiwan University, priority 2008, published 2010)

Assays:
Format in all cases: in vivo
[1] = test system: STZ-diabetic mice(IDDM); experiment: Glycogen content in skeletal muscle, STZ-diabetic mice; conditions: 5 mg/kg i.p., 30 minutes after injection
Description: (§1) Normal, STZ-induced diabetic, and DIO-induced diabetic mice were intraeritoneally injected with borapetoside C (5 mg/kg) and Actrapid (0.5 IU/kg; a short-acting insulin provided by Novo Nordisk) or metformin (500 mg/kg). Their glycogen contents in skeletal muscle were determined 30 minutes after injections.

[2] = test system: normal mice; experiment: Glycogen content in skeletal muscle, normal mice; conditions: 5 mg/kg i.p., 30 minutes after injection
Description: as §1

[3] = test system: Diet-induced diabetic (NIDDM) mice; experiment: Plasma insulin levels before and after treatment (Insulin ELISA), diet-induced diabetic mice; conditions: for Plasma insulin, Pre-treatment: before treatment; for Plasma insulin, post-treatment: one hour after treatment
Description: (§2) Normal mice, STZ-induced diabetic mice, and diet-induced diabetic mice were administered with a vehicle control, borapetoside A (5.0 mg/kg), borapetoside C (at various doses), glibenclamide (5.0 mg/kg) or metformin (500 mg/kg) by intraperitoneal injection. These mice were examined for their blood insulin levels before and one hour after treatment, using the Insulin(Rat) ELISA kit obtained from Penisula Lab. Inc., San Carlos, Calif., USA.

[4] = test system: DIO-induced diabetic mice(NIDDM); experiment: Glycogen content in skeletal muscle, DIO-induced diabetic mice; conditions: 5 mg/kg i.p., 30 minutes after injection
Description: as §1

[5] = test system: STZ-induced diabetic mice; experiment: Insulin sensitivity: plasma glucose reduction with insulin plus borapetoside C or vehicle, STZ-induced diabetic mice; conditions: thirty minutes after insulin
Description: (§3) The effect of borapetoside C on insulin sensitivity was tested following the method described in Liu, et al., Clinical and Experimental Pharmacology and Physiology 2005; 32: 649-654. Normal mice (n=6), STZ-induced diabetic mice (n=5), and DIO-induced diabetic mice (n=7) were treated with insulin at various doses (i.e., 0.1 IU/kg, 0.5 IU/kg, and 1.0 IU/kg) together with either borapetoside C (0.1 mg/kg) or a vehicle control. Their plasma glucose levels were examined before and thirty minutes after insulin administration. The activity of lowering plasma glucose levels (AL) was calculated following the formula described in Example 2 above.

[6] = test system: STZ-diabetic mice (IDDM); experiment: Plasma insulin levels before and after treatment (Insulin ELISA), STZ-diabetic mice; conditions: for Plasma insulin, Pre-treatment: before treatment; for Plasma insulin, post-treatment: one hour after treatment
Description: as §2

[7] = test system: STZ-diabetic mice (IDDM); experiment: Lowering plasma glucose levels via oral administration, STZ-diabetic mice; conditions: oral 10.0 mg/kg, sixty minutes after treatment, mean ± SEM, six animals
Description: (§4) Normal, STZ-induced diabetic mice, and diet-induced diabetic mice were administered orally with 10.0 mg/kg borapetoside C, glibenclamide or metformin as a positive control, and a vehicle control. The plasma glucose levels of the treated mice were determined before and sixty minutes after treatment and the results thus obtained were shown in Table 3 below.

[8] = test system: normal mice; experiment: Plasma insulin levels before and after treatment (Insulin ELISA), normal mice; conditions: for Plasma insulin, Pre-treatment: before treatment; for Plasma insulin, post-treatment: one hour after treatment
Description: as §2

[9] = test system: DIO-induced diabetic mice; experiment: Insulin sensitivity: plasma glucose reduction with insulin plus borapetoside C or vehicle, DIO-induced diabetic mice; conditions: thirty minutes after insulin
Description: as §3

[10] = test system: Normal ICR mice; experiment: Intraperitoneal glucose tolerance test (IPGTT), normal ICR mice; conditions: borapetoside C 5.0 mg/kg
Description: Normal ICR mice and DIO-induced diabetic mice, treated with borapetoside C (5.0 mg/kg), a vehicle control, or glibenclamide (positive control), were subjected to an intraperitoneal glucose tolerance test (IPGTT) as described in Lamont et al., Diabetes 2008; 57: 190-198. More specifically, glucose (2.0 mg/g body weight) was administered via IP injection to normal and DIO mice and blood samples were drawn from the treated mice before and 30, 60, 120, and 150 min after glucose administration for examination of glucose levels.
In normal mice treated with borapetoside C, the vehicle control, and glibenclamide, the basal plasma glucose concentrations were 106.8±4.7 mg/dL, 114.7±4.6 mg/dL, and 104.9±3.1 mg/dL, respectively. Thirty minutes after intraperitoneal glucose injection, the plasma glucose concentration was elevated to 346.2±14.7 mg/dL in vehicle-treated mice, to 292.9±10.9 mg/dL in borapetoside C-treated mice, or to 273.4±13.6 mg/dL in glibenclamide-treated mice.

[11] = test system: normal mice; experiment: Insulin sensitivity: plasma glucose reduction with insulin plus borapetoside C or vehicle, normal mice; conditions: thirty minutes after insulin
Description: as §3

[12] = test system: Diet-induced diabetic mice (NIDDM); experiment: Lowering plasma glucose levels via oral administration, diet-induced diabetic mice; conditions: oral 10.0 mg/kg, sixty minutes after treatment, mean ± SEM, six animals
Description: as §4

[13] = test system: STZ-induced diabetic mice; experiment: Lowering plasma glucose level, intraperitoneal injection, STZ-induced diabetic mice (type I diabetes model); conditions: for Plasma Glucose Level, After: after treatment; for Plasma Glucose Level, Before: before treatment
Description: Normal and streptozotocin (STZ)-induced diabetic mice were administered with borapetoside A (5.0 mg/kg), borapetoside C (5.0 mg/kg), glibenclamide (5.0 mg/kg), metformin (500.0 mg/kg), or a vehicle control via intraperitoneal injection. STZ-induced diabetic mice are a well-known mouse model of type I diabetes (insulin dependent). See, e.g., Liu I M, et al., Neuroscience Letters 2001; 307: 81-84. Glibenclamide and metformin serve as two positive controls in this study.
The plasma glucose levels of the treated mice were determined before and one hour after administration. The activity of lowering plasma glucose levels (AL) is calculated following the formula: […]
Borapetoside C was administered to normal mice at 0.1, 1.0, 3.0, and 5.0 mg/kg and to STZ-diabetic mice at 0.1, 1.0, 3.0, and 5.0 mg/kg. The plasma glucose levels of the treated mice were examined before and after treatment.

[14] = Borapetoside C 0.1 mg/kg together with Insulin 0.1 IU/kg
[15] = Borapetoside C 0.1 mg/kg together with Insulin 0.5 IU/kg
[16] = Borapetoside C 0.1 mg/kg together with Insulin 1.0 IU/kg

## COC(=O)C1=CCC[C@H]2[C@]3(C)C[C@@H](c4ccoc4)OC(=O)[C@@H]3C[C@@H](O[C@@H]3O[C@H](CO)[C@@H](O)[C@H](O)[C@H]3O)[C@@]12C [borapetoside C]
[1]
  Glycogen content (μmol/g wet weight): 23.2 ± 0.7 μmol/g wet weight
[2]
  Glycogen content (μmol/g wet weight): 25.1 ± 1.3 μmol/g wet weight
[3]; 0.1 mg/kg i.p.
  Plasma insulin, Pre-treatment: 110.3 ± 4.5 pmol/L
  Plasma insulin, post-treatment: 114.0 ± 7.6 pmol/L
[3]; 0.5 mg/kg i.p.
  Plasma insulin, Pre-treatment: 116.5 ± 5.7 pmol/L
  Plasma insulin, post-treatment: 174.7 ± 4.8 pmol/L
[3]; 1.0 mg/kg i.p.
  Plasma insulin, Pre-treatment: 111.1 ± 2.0 pmol/L
  Plasma insulin, post-treatment: 178.5 ± 14.6 pmol/L
[3]; 3.0 mg/kg i.p.
  Plasma insulin, Pre-treatment: 113.2 ± 2.8 pmol/L
  Plasma insulin, post-treatment: 254.0 ± 23.4 pmol/L
[3]; 5.0 mg/kg i.p.
  Plasma insulin, Pre-treatment: 107.4 ± 5.5 pmol/L
  Plasma insulin, post-treatment: 255.8 ± 15.9 pmol/L
[4]
  Glycogen content (μmol/g wet weight): 23.3 ± 0.4 μmol/g wet weight
[5]; [14]
  AL (%): 10.5 ± 1.4%
[5]; [15]
  AL (%): 18.9 ± 2.1%
[5]; [16]
  AL (%): 32.2 ± 2.1 %
[6]; 0.1 mg/kg i.p.
  Plasma insulin, Pre-treatment: 15.2 ± 0.8 pmol/L
  Plasma insulin, post-treatment: 16.3 ± 0.9 pmol/L
[6]; 0.5 mg/kg i.p.
  Plasma insulin, Pre-treatment: 15.5 ± 0.6 pmol/L
  Plasma insulin, post-treatment: 15.9 ± 0.6 pmol/L
[6]; 1.0 mg/kg i.p.
  Plasma insulin, Pre-treatment: 15.7 ± 0.8 pmol/L
  Plasma insulin, post-treatment: 15.9 ± 0.4 pmol/L
[6]; 3.0 mg/kg i.p.
  Plasma insulin, Pre-treatment: 13.8 ± 1.6 pmol/L
  Plasma insulin, post-treatment: 14.8 ± 0.5 pmol/L
[6]; 5.0 mg/kg i.p.
  Plasma insulin, Pre-treatment: 15.0 ± 0.5 pmol/L
  Plasma insulin, post-treatment: 14.4 ± 0.6 pmol/L
[7]
  Activity of lowing plasma glucose levels (%): 17.7 ± 1.7 %
[8]; 0.1 mg/kg i.p.
  Plasma insulin, Pre-treatment: 54.0 ± 3.4 pmol/L
  Plasma insulin, post-treatment: 71.5 ± 5.3 pmol/L
[8]; 0.5 mg/kg i.p.
  Plasma insulin, Pre-treatment: 52.2 ± 3.0 pmol/L
  Plasma insulin, post-treatment: 65.7 ± 9.8 pmol/L
[8]; 1.0 mg/kg i.p.
  Plasma insulin, Pre-treatment: 58.9 ± 3.5 pmol/L
  Plasma insulin, post-treatment: 65.0 ± 6.0 pmol/L
[8]; 3.0 mg/kg i.p.
  Plasma insulin, Pre-treatment: 52.0 ± 3.7 pmol/L
  Plasma insulin, post-treatment: 142.6 ± 29.2 pmol/L
[8]; 5.0 mg/kg i.p.
  Plasma insulin, Pre-treatment: 56.6 ± 2.3 pmol/L
  Plasma insulin, post-treatment: 139.4 ± 25.5 pmol/L
[9]; [14]
  AL (%): 24.0 ± 1.1%
[9]; [15]
  AL (%): 31.6 ± 1.6%
[9]; [16]
  AL (%): 42.5 ± 0.8 %
[10]; before glucose injection
  basal plasma glucose concentration (IPGTT): 106.8 ± 4.7 mg/dL
[10]; glucose 2.0 mg/g IP
  plasma glucose levels at 60 min, 120 min, and 150 min versus control mice (IPGTT): significantly lower
[10]; glucose 2.0 mg/g body weight IP, vehicle 346.2±14.7
  plasma glucose concentration thirty minutes after intraperitoneal glucose injection (IPGTT): 292.9 ± 10.9 mg/dL
[11]; [14]
  AL (%): 17.2 ± 1.2%
[11]; [15]
  AL (%): 45.7 ± 3.7%
[11]; [16]
  AL (%): 64.7 ± 1.8 %
[12]
  Activity of lowing plasma glucose levels (%): 28.2 ± 3.1 %
[13]; 0.1 mg/kg
  Plasma Glucose Level, After: 529.0 ± 14.7 mg/dL
  Plasma Glucose Level, Before: 580.0 ± 7.8 mg/dL
[13]; 1.0 mg/kg
  Plasma Glucose Level, After: 472.2 ± 13.9 mg/dL
  Plasma Glucose Level, Before: 566.6 ± 11.4 mg/dL
[13]; 3.0 mg/kg
  Plasma Glucose Level, After: 493.8 ± 15.3 mg/dL
  Plasma Glucose Level, Before: 572.2 ± 16.2 mg/dL
[13]; 5.0 mg/kg intraperitoneal injection, one hour after administration
  Activities of Lowering Plasma Glucose Levels (AL): 16.5 ± 2.9%
[13]; 5.0 mg/kg
  Plasma Glucose Level, After: 481.1 ± 20.8 mg/dL
  Plasma Glucose Level, Before: 576.0 ± 11.1 mg/dL
